Experimental data reported in publication PMC5428058, “Local delivery of novel MRTF/SRF inhibitors prevents scar tissue formation in a preclinical model of fibrosis” (Scientific Reports, 2017).
pIC50: −log10 of the molar value.

Tests used:
[1] = system: human conjunctival fibroblasts; assay: fibroblast-populated collagen contraction assay (human); assay type: cell-based; conditions: for pIC50: human conjunctival fibroblasts in collagen type I matrix, 7 days
Protocol: (§1) We screened two candidate MRTF/SRF pathway inhibitors, CCG-222740 and CCG-203971, using detached three-dimensional fibroblast-populated collagen gels[56], [57]. Human or rabbit conjunctival fibroblasts were seeded in a collagen Type I matrix (First Link UK Ltd, Birmingham, UK) at a concentration of 0.7 × 10^4 cells/ml. The fibroblast-populated collagen gel mixture was cast into the wells of MatTek dishes (MatTek Corp, MI, USA). The gels were detached from the edges of the well and 2 ml of growth medium were added to each well with 5, 25, 50, 75, or 100 μM of CCG-222740 or CCG-203971 or 0.1% DMSO control. Digital photographs were obtained daily and lattice areas were measured using Image J software (http://rsb.info.nih.gov/ij/). The gel size at day 7 was assessed as a percentage of lattice area on day 0. Each experiment was performed as triplicate gels per condition and the experiment was repeated on three separate days.

[2] = system: rabbit conjunctival tissue; assay: histologic analysis of bleb tissue after glaucoma filtration surgery; assay type: in vivo; conditions: for expression of αSMA by cells in tissue sections / scar tissue formation (picrosirius red) compared to vehicle control: day 30; for newly laid extracellular matrix and collagen (Gomori's trichrome): day 30, vehicle versus treated
Protocol: We further evaluated the histologic differences after local delivery of CCG-222740 and CCG-203971. The white filtration tube was used as landmark and the plane of sectioning of the bleb area was performed 2 mm from the tube (black line in Fig. 5). Grading was performed using a modified system originally described by Shah et al.[34]. The left operated eyes were compared to the right non-operated eyes that were used as controls for the appearance of normal conjunctival tissue. The sections were graded using a scale of −4 to +4 (0 = same as control eye; 1 = 1–25% difference from control eye; 2 = 26–50% difference from control eye; 3 = 51–75% difference from control eye; 4 = >75% difference from control eye; prefix+, more than; prefix−, less than). Analysis was performed using the mean results in each treatment group.
The animals were sacrificed on day 30 and both eyes were enucleated. The eyes were fixed in formalin, embedded in paraffin, and sequential 4 μm tissue sections were cut.
The sections were stained with hematoxylin and eosin (for cellularity and inflammatory cells), Gomori’s trichrome (for collagen), picrosirius red (for degree of fibrosis and collagen deposition), and alpha-smooth muscle actin (αSMA) using a primary monoclonal mouse anti-human αSMA antibody (Clone 1A4; Dako, High Wycombe, UK) and a biotinylated secondary antibody (rabbit anti-mouse; Dako). All the left operated eyes were compared to the right non-operated eyes that were used as controls for the appearance of normal conjunctival tissue. The sections were graded using a modified grading system originally described by Shah et al.[34], with a scale of −4 to +4 according to the staining intensity. Grades were defined as 0 = same as control eye; 1 = 1–25% difference from control eye; 2 = 26–50% difference from control eye; 3 = 51–75% difference from control eye; 4 = >75% difference from control eye (prefix+, more than; prefix −, less than).

[3] = system: rabbit conjunctival fibroblasts; assay: fibroblast-populated collagen contraction assay (rabbit); assay type: cell-based; conditions: 7 days
Protocol: as §1

[4] = system: human conjunctival fibroblasts; assay: cell viability assay (CellTiter 96 Aqueous one solution); assay type: cell-based; conditions: for cell viability: 24 hours
Protocol: Human conjunctival fibroblasts were plated at 6.25 × 10^3 cells/well in 96-well plates (Falcon, Fisher Scientific), and treated with 1, 3, 10, 30 or 100 μM of CCG-222740 or CCG-203971 or 0.1% DMSO control for 24 hours. 20 μl of CellTiter 96 Aqueous one solution (Promega) were then added to each well containing the samples in 100 μl of culture medium. The plate was incubated for 1 hour at 37 °C and the absorbance was measured at 490 nm on a SpectraMax Plus 384 spectrophotometer (Molecular Devices, California, USA). Each experiment was carried out in triplicates for each condition and the experiment was repeated three times.

[5] = system: ACTA2 and CTGF in human conjunctival fibroblasts; assay: MRTF/SRF target gene expression by qRT-PCR (human); assay type: cell-based; conditions: 24 hours, 10% FCS
Protocol: (§2) Human or rabbit conjunctival fibroblasts were plated at 1 × 10^5 cells/well in 6-well plates (Falcon, Fisher Scientific). The next day, the fibroblasts were treated with 5, 10, 25, or 50 μM of CCG-222740 or CCG-203971 or 0.1% DMSO control in DMEM +10% FCS for 24 hours. The fibroblasts were then lysed for RNA extraction using the Sigma RNA isolation kit (Sigma-Aldrich), according to the manufacturer’s instructions. Reverse transcription was carried out using the Transcriptor First Strand cDNA Synthesis Kit (Roche), according to the manufacturer’s instructions. qRT-PCR reactions were performed using SYBR green reagents (Life Technologies) on an HT7900 Fast Real-Time PCR system (Applied Biosystems). The human exonic primer sequences were: ACTA2, 5′-[…]-3′, 3′-[…]-5′; CTGF, 5′-CAGAGTGGAGCGCCTGTT-3′, 3′-CTGCAGGAGGCGTTGTCA-5′; GAPDH, 5′-[…]-3′, 3′-[…]-5′. The rabbit exonic primer sequences were ACTA2, 5′- […]-3′, 3′- […]-5′; GAPDH, 5′-CGAGACACGATGGTGAAGG-3′, 3′-[…]-5′. All mRNA values were normalised relative to that of GAPDH. Each experiment was carried out in triplicates for each treatment group and the experiment was repeated three times.

[6] = system: ACTA2 in rabbit conjunctival fibroblasts; assay: ACTA2 gene expression by qRT-PCR (rabbit); assay type: cell-based; conditions: 24 hours
Protocol: as §2

[7] = system: αSMA protein in human conjunctival fibroblasts; assay: Western blot of αSMA protein expression; assay type: cell-based; conditions: 10 or 25 μM, 48 hours
Protocol: Human conjunctival fibroblasts were lysed using 2x SDS sample buffer (100 mM Tris HCL ph6.8, 4% SDS, 20% glycerol, 200 mM dithiothreitol, 0.2% bromophenol blue). Equal amounts of protein were loaded onto and run on 4–12% NuPAGE Bis-Tris protein gels (Novex, Life Technologies). The gels were transferred onto nitrocellulose blotting membranes (Amersham, Life Sciences), and blocked in 3% non-fat milk in PBST (PBS 0.1% Tween) for 1 hour. The membranes were then incubated overnight at 4 °C in αSMA primary antibody (1:200, polyclonal rabbit, ab5694, Abcam). The next day, the membranes were washed three times for 10 minutes in PBST, and incubated for 1 hour at room temperature in anti-rabbit HRP (1:2500, Dako). The membranes were then washed three times for 10 minutes in PBST, treated with ECL solution (Amersham, Life sciences) for 5 minutes, and scanned on an Odyssey IR Imager (LI-COR).

Row | Compound | pIC50 [1] | expression of αSMA by cells in tissue sections [2] | scar tissue formation (picrosirius red) compared to vehicle control [2] | newly laid extracellular matrix and collagen (Gomori's trichrome) [2] | potency in collagen contraction relative to CCG-203971 ([1]; human conjunctival fibroblasts) | decrease of collagen matrix contraction, comparison [3] | cell viability ([4]; 10 μM) | cell viability ([4]; 30 μM) | cell viability ([4]; 100 μM) | cytotoxicity, comparison ([4]; human conjunctival fibroblasts) | expression of MRTF/SRF target genes ACTA2 and CTGF, comparison [5] | ACTA2 gene expression, comparison [6] | αSMA protein expression, comparison [7]
1 | O=C(Nc1ccc(Cl)cc1)C1CCCN(C(=O)c2cccc(-c3ccco3)c2)C1 (centres unmarked) [CCG-203971] | 4.60 | significantly decreased the expression of αSMA | significant decrease in scar tissue formation | present to a greater degree in the vehicle-treated group compared to | – | – | – | – | – | – | – | – | –
2 | O=C(Nc1ccc(Cl)cc1)C1CN(C(=O)c2cccc(-c3ccco3)c2)CC(F)(F)C1 (centres unmarked) [CCG-222740] | 5.30 | significantly decreased the expression of αSMA | significant decrease in scar tissue formation | present to a greater degree in the vehicle-treated group compared to | five times more potent than CCG-203971 | more effective at decreasing collagen matrix contraction than CCG-203971 | 100% | 88% | 85% | less cytotoxic than CCG-203971 | more potent inhibitor of expression | decreased ACTA2 gene expression to a greater extent than CCG-203971 | more potent than CCG-203971 at decreasing αSMA protein expression
